The values below come from patent publication US10399958B2, “PPAR agonists, compounds, pharmaceutical compositions, and methods of use thereof” (Mitobridge, Inc., priority 2015, dated 2019).

Where two headings read alike, the source gives them in different places. Where only a bound is given, the exact number is not on record here.

Series [1] is described as follows: Pharmacokinetic (PK) screening (i.v.) in male CD1 mice. Format: in vivo, mouse. The note with it: male, CD1, mouse, plasma, iv, 1 mg/kg, I.V. 1 mg/kg dose, plasma. Here is the method:
In this example, the intravenous PK profile of several PPARδ agonists disclosed herein in male CD1 mice was determined. Similar methods can be used to analyze other compounds provided herein. All compounds were administered separately to CD1 mice at 1 mg/kg (i.v.), except the comparator compound to 2c was administered at 3 mg/kg (i.v.), as noted below.

Series [2] has as its system DMD human skeletal muscle cells. Description: Mitochondrial biogenesis (BrdU labeling). Format: cell-based. The settings on record: DMD patient cells, treated from day 4 of differentiation, FIG. 2. The procedure: DMD human skeletal muscle cells were plated into 96 well plates. Media was changed to Differentiation Medium and cells were allowed to differentiate for 7 days. […] Three days later cells were labeled with bromodeoxyuridine (BrdU) in culture media for 2 hours. Following the incubation, cells were washed, and then incubated with anti-BrdU antibody overnight at 4° C. The next day, samples were washed incubated with anti-mouse IgG HRP for 45 min at 37° C., and then washed. Optical density was measured at 450 nm wavelength on a SpectraMax M5 (Molecular Devices).
Data was analyzed in Graph Pad Prism. Normality of distribution was determined by D'Agostino-Pearson omnibus normality test. If the samples were normally distributed, they were analyzed by One-Way ANOVA followed by a post hoc Dunnett's test vs DMSO control cells or unpaired two tailed T-test. If the samples were not normally distributed, then a Kruskal-Wallis test was used to determine significance.

A further series concerns mdx mouse. Description: Endurance running assay (treadmill) in mdx mouse model of Duchenne Muscular Dystrophy. Format: in vivo. The note with it: mdx mice, 10 or 30 mg per kg PO, 34-35 days, FIG. 3. From the text: PPARδ is activated in response to exercise where it will elicit an increase in fatty acid utilization. Duchenne Muscular Dystrophy is a progressive, early-onset degenerative muscle disease with associated muscle function deficits resulting from the loss of the protein dystrophin. Fatty acid metabolism and altered mitochondrial function are reported to be an aspect of the disease.
C57BL/10ScSn-Dmdmdx/J and C57BL/10ScSnJ mice ˜5-7 weeks of age were received and housed singly in polycarbonate cages. Animals were fed standard chow and had access to feed and water at all times ad libitum. […] Vehicle was dosed for control groups. All the animals were dosed by oral gavage (PO) for 34-35 days. The mice were dosed at 8 AM on the last in-life study day with the necropsy started 2 hours after the final dose.
Mice were acclimated to a moving belt treadmill in a series of acclimation runs before evaluation for overall endurance at a set maximal speed. Each mouse was run in a separate lane that contained an electric stimulating grid. The number of visits to the electric stimulating grid and the number of shocks each animal received were recorded by the instrument and a technician evaluated the animal during the run to determine the time and distance to exhaustion. The maximum speed for all the three endurance runs was capped at 20 m/min. […]

In the next series the test system is mdx mouse muscle. Description: Histology pathology assessment of muscle in mdx mice. The class given is in vivo. The text has this: Similar to the muscle pathology in Duchenne Muscular Dystrophy, mdx mice have dystrophic pathologies in skeletal muscle that is apparent soon after birth. Key aspects of this phenotype evident by pathology are the loss of myofibers through apoptosis/necrosis, evidence of regenerating muscle fibers, infiltrating immune cells, and increased muscle fibrosis.
Animals and dosing were as previously described. See Example 4.
Quadriceps, gastrocnemius and tibialis anterior muscles were harvested at necropsy, and fixed by immersion in 10% neutral buffered formalin and embedded in paraffin. Tissues were sectioned at […] from each block and slides were evaluated by a board certified veterinary pathologist. Histopathologic evaluation included qualitative and semi-quantitative evaluation for myofiber necrosis, inflammation, myofiber regeneration and interstitial fibrosis, as outlined in Tables 1, 2, and 3, respectively.
(§1) Diaphragm weights, histology scores and immunofluorescence data were tested using a parametric test if normality was confirmed by Shapiro-Wilk normality test (unpaired t-test for 2 groups or One way ANOVA followed by post hoc Dunn's multiple comparison testing versus the mdx vehicle group for 3 groups) and a Mann-Whitney test (2 groups) or Kruskal-Wallis One-Way ANOVA (non-parametric) followed by post hoc Dunn's multiple comparison testing versus the mdx vehicle group (3 groups) if the data were not normally distributed.

For series [3], the system named is mdx mouse quadriceps muscle. Description: Immunofluorescent (IgM) assessment of muscle necrosis in mdx mice. Format: in vivo. The settings on record: IgM immunofluorescence, FIG. 5. Here is the method: Precut paraffin section slides were deparaffinized and incubated with AlexaFluor 488 conjugated wheat germ agglutinin followed by an incubation with Alexa 568 conjugated anti-mouse IgM (abcam, Product #ab175702). Slides were washed and mounted with coverslips using ProLong Diamond Antifade Mountant with DAPI. Imaging was performed on a Nikon fluorescent microscope using a 40× objective and composite images were stitched together using NIS Elements Software, V4.4 (Nikon, Tokyo, Japan). Analysis was completed using Image J 1.50b, Java 1.8.0_60 (64 bit).
as §1
Quadriceps muscle sections were labeled fluorescently to detect IgM antibody accumulation within damaged myofibers, an indication of loss of myofiber integrity and active necrosis. Each muscle section was imaged in its entirety and the number and size of necrotic regions was measured. […]

Another series has as its system mdx mouse diaphragm. Description: Diaphragm fibrosis by hydroxyproline assay in mdx mice. Format: in vivo. The note with it: FIG. 10. Here is the method: Diaphragm samples were harvested carefully and the central tendon was cut away to ensure hydroxyproline signal was derived from muscle and not collagen-rich tendon. Hydroxyproline assay was performed according to the manufacturers' instructions (Sigma-Aldrich Hydroxyproline Assay Kit). Final values were calculated as follows: […]
as §1
Diaphragms were evaluated for fibrosis by measuring hydroxyproline, an amino acid unique to collagen, in digested muscle. Mdx mice were confirmed to have increased fibrosis versus non-dystrophic control mice (FIG. 9).

Series [4] concerns Sprague-Dawley rat acute kidney injury. As to the kind of experiment: Ischemia-reperfusion kidney injury in rats, plasma creatinine. The class given is in vivo. The note with it: 30 mg/kg orally 4 hours after surgery, blood 24 hours after reperfusion, FIG. 11. Here is the method:
Sprague-Dawley male rats approximately 280-300 g, with ad libitum access to standard feed and water were used in these experiments. Rats were anesthetized with isoflurane and placed ventrally on a temperature controlled heated surgical platform. A skin incision was made on the dorsal surface, exposing both kidneys through flank incisions. Vascular clips were applied to both renal pedicles and occlusion lasted 45 minutes. After 45 min, the clips were removed, kidneys were monitored for successful reperfusion, and surgical sites were sutured. The sham group was subjected to similar surgical procedures, except that the occluding clamps were not applied. Four independent studies, testing each compound were performed. Compounds were formulated as a fresh daily suspension in 0.25% sodium carboxymethyl-cellulose, 0.25% Tween-80 in purified water. Compounds were dosed orally at 30 mg/kg 4 hours after animals awoke from surgery and sham surgery and IRI control animals were similarly dosed with vehicle.
Twenty-four (24) hours after reperfusion, blood was collected in K2 EDTA tubes by retro-orbital bleeding from all groups under mild isoflurane anesthesia. Plasma was separated by centrifugation at 3000 rpm for 10 minutes at 4° C. Plasma creatinine was analyzed using a fully automated clinical biochemistry analyzer (Siemens Dimension® Xpand® Plus Integrated Chemistry System)
Creatinine was tested for normal distribution in all groups via a D'Agostino-Pearson omnibus normality test and a Shapiro-Wilk normality test. Normally distributed data was subjected to an unpaired, two-tailed t test. Non-normally distributed data was subjected to a Mann-Whitney test (non-parametric). Statistical significance is determined by p<0.05 of IRI-vehicle compared to compound treated groups.

For the compound `Cc1cnc(-c2ccc(C(F)(F)F)cc2)n1Cc1ccccc1OCCC[C@@H](C)CC(=O)O` [Compound 2d, (R)-3-methyl-6-(2-((5-methyl-2-(4-(trifluoromethyl)phenyl)-1H-imidazol-1-yl)methyl)phenoxy)hexanoic acid], the results for the clearance in series [1] (read-out: CL) and in series [1] (read-out: High or Low CL) were 25 mL/min/kg and below 85 mL/min/kg, respectively. Also, the Mitochondrial biogenesis entry in series [2] is listed as “increased in a dose-dependent manner”. In addition, the Treadmill running distance result in the series with mdx mouse was “increased distance over mdx vehicle treated group mice”. Also, in the series on mdx mouse muscle (10 or 30 mg per kg PO, 34-35 days, FIG. 4), the “Pathology scored necrosis, quadriceps” value is “Decreased necrosis”. In the series on mdx mouse muscle (FIG. 6), the “Inflammation, quadriceps muscle” value is on record as “Decreased inflammation”. The Quadriceps muscle regeneration entry with mdx mouse muscle (FIG. 7) is given as “increases”. In the series with mdx mouse muscle (FIG. 8), the Diaphragm muscle necrosis result was “reduced diaphragm necrosis”. Further, the “Necrotic region size, quadriceps” value in series [3] is listed as “decreased”. Also, in the series with mdx mouse diaphragm, the “Diaphragm fibrosis (hydroxyproline)” value is “reduced fibrosis”. For the same compound, the Plasma creatinine entry in series [4] is “reduce plasma creatinine”.
